Holding throughout (format): binding
Assay [1] has as its target T1, FAU (Homo sapiens, UniProt P62861).
T1 construct: uncleaved FAU precursor (FUBI fused to ribosomal protein S30); GST-tagged (pGEX-6P-1), E. coli BL21, glutathione agarose
As to the kind of experiment: photo-crosslinking, rhodamine-azide click, in-gel fluorescence.

The target of assay [2] is T2, FUBI (Homo sapiens, UniProt P62861).
T2 construct: gene FAU; mature FUBI (74 residues, ends VAGRMLGG) cut from the FAU precursor (FUBI-eS30 fusion); E. coli BL21; GST-FUBI (pGEX-6P-1) for photolabelling; untagged FUBI (6-HIS-SUMO removed by ULP1) for HDX-MS; printed peptides 32-42 EGIAPEDQVVL and 67-74 VAGRMLGG
Described as above. The source says:
photo-crosslinking, rhodamine-azide click, in-gel fluorescence on FUBI | recombinant preparations of FUBI, but not S30, were dose-dependently labeled by mCMN927

Assay [3] deals with T2, FUBI. As to the kind of experiment: HDX-MS (also competition of probe labelling). Particulars: untagged FUBI 5 µM, 600 µM compound, 20 mM Tris-HCl, 100 mM NaCl, pH 8.0, 25 °C; non-covalent; residues 32-42 and 67-74.

Here are results for two molecules from publication doi:10.1101/2025.07.06.663376v1, “Fubylation as a Druggable Ubiquitin-Like Conjugation System Controlling Hippo Pathway Activity” (biorxiv, 2025).

In general, EC50 refers to the concentration needed to bring the measured effect to its halfway point. Lower therefore signals a more potent agent. With `C#CCCC1(CCN(C)CC2CCN(c3nc(-c4ccncc4)nc4ccccc34)CC2)N=N1` [mCMN927, {2-[3-(but-3-yn-1-yl)diazirin-3-yl]ethyl}(methyl)({1-[2-(pyridin-4-yl)quinazolin-4-yl]piperidin-4-yl}methyl)amine], the EC50 in assay [1] is 4.3 µM; in assay [2] it was 3.5 µM.

Take `CN(C)CC1CCN(c2nc(-c3ccncc3)nc3ccccc23)CC1` [sCMF231]: the “HDX-MS (also competition of probe labelling)” value in assay [3] was “sCMF231 treatment reduced deuterium exchange within two key regions”.
